Experimental data taken from PubChem BioAssay (NCI).
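A five-concentration, 48-hour dose response in 96-well plates underlies each endpoint, interpolated linearly between surrounding concentrations. At the TGI there is no net growth.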

Assays:
Assay in all cases: DTP human tumour cell line panel, 48 h
[1] = tested on: CCRF-CEM leukemia
[2] = tested on: EKVX NSCLC
[3] = tested on: HOP-62 NSCLC
[4] = tested on: HT29 colon
[5] = tested on: K-562 leukemia
[6] = tested on: SK-OV-3 ovarian
[7] = tested on: SNB-19 CNS
[8] = tested on: SW-620 colon
[9] = tested on: UACC-257 melanoma
[10] = tested on: SR leukemia

Structure (SMILES) | TGI [1] [µM] | TGI [2] [µM] | TGI [3] [µM] | TGI [4] [µM] | TGI [5] [µM] | TGI [6] [µM] | TGI [7] [µM] | TGI [8] [µM] | TGI [9] [µM] | TGI [10] [µM]
Clc1ccc(CSCCc2ccncc2)cc1Cl | 44.7 | 57 | 50.2 | 31.2 | 51 | 59.4 | 35.6 | 46.6 | > 100 | 
CC1=NN(C(=O)CC(=O)Nc2ccccc2F)C(=O)C1N=Nc1ccccc1[N+](=O)[O-] (stereo unspecified) | > 100 | > 100 | > 100 | > 100 | > 100 | > 100 | > 100 | > 100 | > 100 | 
Oc1[nH]c2ccc(Br)cc2c1N=NC(=S)Nc1ccc(F)cc1 |  |  | 60.5 | 28 | 67.3 | 33.4 |  | 40.2 | 43 | 12.2
CC(=O)Oc1cc(C(F)(F)F)ccc1C(=O)OC1(C)OC(=O)c2ccc(C(F)(F)F)cc2O1 (stereo unspecified) | > 100 | > 100 | > 100 | > 100 | > 100 | > 100 | > 100 | > 100 | > 100 | 
O=C(O)C(SC1=NNC2(C(=O)N1)c1ccccc1-c1ccccc12)SC1=NNC2(C(=O)N1)c1ccccc1-c1ccccc12 | > 10 | > 10 | > 10 | > 10 | > 10 | > 10 | > 10 | > 10 | > 10 | 
CCCCn1cnc2c(c(CC#N)nn2-c2ccccc2)c1=N | > 100 | > 100 | > 100 | > 100 | > 100 | > 100 | > 100 | > 100 | > 100 | 
CN(Cc1ccccc1)c1cc(=O)n(C)c(=O)[nH]1 | > 100 |  |  | > 100 | > 100 | > 100 | > 100 | > 100 | > 100 | 
N#CC1=C(c2ccccc2)NNC(c2ccc(Cl)cc2)CC1=O (stereo unspecified) |  |  | 73.8 | > 100 |  | > 100 | > 100 | > 100 | > 100 | > 100
